Patent publication US12643887B2, “Heterocyclic derivatives with cardiomyocyte proliferation activity for treatment of heart diseases” (Tongji University, priority 2019, dated 2026)
pIC50: −log10 of the molar value.

Experiments:
human CLK1 = target: T1, human CLK1 (Homo sapiens, UniProt P49759); experiment: CLK1 enzyme assay (ADP-Glo); assay type: biochemical; details: ADP-Glo, ATP 10 μM; read-out: CLK1 IC50
T1 construct: Recombinant human CLK1 (129-end); GST (N); purchased SignalChem C57-11G; host or cells: Sf9 insect cells
T1 sequence (P49759 129-484 limits assumed): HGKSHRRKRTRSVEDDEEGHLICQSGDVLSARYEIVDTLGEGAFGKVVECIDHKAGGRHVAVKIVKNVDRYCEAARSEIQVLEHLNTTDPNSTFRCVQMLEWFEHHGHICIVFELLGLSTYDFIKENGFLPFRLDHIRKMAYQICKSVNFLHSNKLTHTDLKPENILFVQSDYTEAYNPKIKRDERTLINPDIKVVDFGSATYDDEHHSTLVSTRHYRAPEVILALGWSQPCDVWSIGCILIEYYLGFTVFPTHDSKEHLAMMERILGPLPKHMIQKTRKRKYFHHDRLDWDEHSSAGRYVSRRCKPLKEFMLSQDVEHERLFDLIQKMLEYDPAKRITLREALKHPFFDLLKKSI
Protocol: The ability of compounds to inhibit human CLK1 kinase activities was determined using a commercially available ADP-Glo™ Kinase Assay kit (Promega, Cat #V9102) according to the manufacturer's protocol.
(§1) Recombinant human CLK1 (129-end) (expressed in Sf9 insect cells with an N-terminal GST tag) was purchased from SignalChem (Cat #C57-11G). Recombinant full length human MBP (expressed in E. Coli cells with an N-terminal GST tag.) was purchased from SignalChem (Cat #M42-54G). This assay, run in a 384-well plate format, is a generic method for measuring kinase activities using an ADP-Glo Kinase Assay Kit. The basic assay procedure involves two steps: (1) Enzymatic step: inhibitors are incubated with the kinase and then ATP (included in the ADP-Glo Kinase Assay Kit) and the MBP protein are added to start the enzymatic reaction; (2) Detection step: after the kinase reaction, first ADP-Glo™ Reagent is added to terminate the kinase reaction and deplete the remaining ATP. Second, the Kinase Detection Reagent is added to simultaneously convert ADP to ATP and allow the newly synthesized ATP to be measured using a luciferase/luciferin reaction. The light generated is measured using a luminometer.
(§2) Briefly, CLK1 (16 nM) in the enzymatic buffer solutions (40 mM Tris, pH 7.5, 20 mM MgCl2, 0.1 mg/ml BSA, 50 μM DTT) were mixed with various concentrations of inhibitors (dissolved in 100% DMSO). These solutions were incubated for 30 minutes at 25° C., and subsequently a mixture of substrate peptide and ATP was added with the final peptide and ATP concentrations at 2 μM and 10 μM, respectively. The final reaction mixture of enzyme-substrate-ATP-compound was incubated for 60 minutes at 25° C.
Afterwards ADP-Glo™ Reagent was added and the mixture was incubated at 25° C. for 60 minutes. Then Kinase Detection Reagent was added and the final mixture was incubated at 25° C. for 60 minutes. The luminescence signal of the final solution was measured on an Envision instrument (PerkinElmer). The percent (%) inhibition at each concentration of a compound is calculated relative to the luminescence signal in the Max and Min control wells contained within each assay plate. […] The concentrations and percent inhibition values for a test compound are plotted and the concentration of the compound required to achieve 50% inhibition (IC50) is determined with a four-parameter logistic dose response equation.

human HIPK1 = target: T2, human HIPK1 (Homo sapiens, UniProt Q86Z02); experiment: HIPK1 enzyme assay (ADP-Glo); assay type: biochemical; details: ADP-Glo, ATP 5 μM; read-out: HIPK1 IC50
T2 construct: Recombinant human HIPK1 (156-555); GST (N); purchased SignalChem H03-11G; host or cells: Sf9 insect cells
T2 sequence (Q86Z02 156-555): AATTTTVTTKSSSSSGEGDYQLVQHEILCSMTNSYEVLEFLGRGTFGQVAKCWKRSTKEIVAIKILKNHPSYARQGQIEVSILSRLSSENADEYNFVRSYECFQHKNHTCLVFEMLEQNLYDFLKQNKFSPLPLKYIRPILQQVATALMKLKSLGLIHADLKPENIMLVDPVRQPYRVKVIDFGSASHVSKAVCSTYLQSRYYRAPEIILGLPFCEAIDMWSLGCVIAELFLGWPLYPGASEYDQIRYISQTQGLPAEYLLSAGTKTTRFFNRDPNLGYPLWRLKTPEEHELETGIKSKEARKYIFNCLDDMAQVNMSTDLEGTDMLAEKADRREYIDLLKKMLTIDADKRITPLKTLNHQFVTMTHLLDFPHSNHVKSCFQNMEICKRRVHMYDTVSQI
Protocol: The ability of compounds to inhibit human HIPK1 kinase activities was determined using a commercially available ADP-Glo™ Kinase Assay kit (Promega, Cat #V9102) according to the manufacturer's protocol.
as §1, with “HIPK1 (156-555)” for “CLK1 (129-end)”, “#H03-11G).” for “#C57-11G).”, “tag)” for “tag.)”
as §2, with “Briefly, HIPK1 (4” for “Briefly, CLK1 (16”, “at 0.05 mg/ml” for “at 2 μM”, “and 5” for “and 10”, “for 90” for “for 60”
Afterwards ADP-Glo™ Reagent was added and the mixture was incubated at 25° C. for 60 minutes. Then Kinase Detection Reagent was added, and the final mixture was incubated at 25° C. for 60 minutes. The luminescence signal of the final solution was measured on an Envision instrument (PerkinElmer). The percent (%) inhibition at each concentration of a compound is calculated relative to the luminescence signal in the Max and Min control wells contained within each assay plate. […] The concentrations and percent inhibition values for a test compound are plotted and the concentration of the compound required to achieve 50% inhibition (IC50) is determined with a four-parameter logistic dose response equation.

SMILES | pIC50 (human CLK1) | pIC50 (human HIPK1)
O=C1NC(Nc2ccc3ncsc3c2)=N/C1=C\c1ccc2scnc2c1 [Example 57, (Z)-5-(benzo[d]thiazol-5-ylmethylene)-2-(benzo[d]thiazol-6-ylamino)-3,5-dihydro-4H-imidazol-4-one] | > 7.00 | > 7.00
CN(Cc1ccccc1)C1=N/C(=C\c2ccc3ncsc3c2)C(=O)N1 [Example 28, (Z)-5-(benzo[d]thiazol-6-ylmethylene)-2-(benzyl(methyl)amino)-3,5-dihydro-4H-imidazol-4-one] | 6.00 to 7.00 | 5.00 to 6.00
O=C1/C(=C/c2ccc3c(c2)OCO3)N=C(N(Cc2ccccc2)c2ccccc2)N1Cc1ccccc1 [Example 2, (Z)-5-(benzo[d][1,3]dioxol-5-ylmethylene)-3-benzyl-2-(benzyl(phenyl)amino)-3,5-dihydro-4H-imidazol-4-one] | 5.00 to 6.00 | < 5.00
NC1=N/C(=C\c2ccc3ncsc3c2)C(=O)N1 [Example 103, (Z)-2-amino-5-(benzo[d]thiazol-6-ylmethylene)-3,5-dihydro-4H-imidazol-4-one] | > 7.00 | 6.00 to 7.00
CN(C1=N/C(=C\c2ccc3c(c2)OCO3)C(=O)N1)c1cccnc1 [Example 18, (Z)-5-(benzo[d][1,3]dioxol-5-ylmethylene)-2-(methyl(pyridin-3-yl)amino)-3,5-dihydro-4H-imidazol-4-one] | 6.00 to 7.00 | < 5.00
O=C1NC(Nc2ccccc2)=N/C1=C\c1ccc2occc2c1 [Example 52, (Z)-5-(benzofuran-5-ylmethylene)-2-(phenylamino)-3,5-dihydro-4H-imidazol-4-one] | 6.00 to 7.00 | < 5.00
O=C1NC(Nc2ccc3ncsc3c2)=NC1Cc1ccc2ncsc2c1 (stereo not drawn) [Example 102, 2-(benzo[d]thiazol-6-ylamino)-5-(benzo[d]thiazol-6-ylmethyl)-3,5-dihydro-4H-imidazol-4-one] | 6.00 to 7.00 | 6.00 to 7.00
O=C1NC(Nc2ccc3ncsc3c2)=N/C1=C\c1ccc2cc[nH]c2c1 [Example 63, (Z)-5-((1H-indol-6-yl)methylene)-2-(benzo[d]thiazol-6-ylamino)-3,5-dihydro-4H-imidazol-4-one] | < 5.00 | < 5.00
O=C1NC(Nc2ccc(Cl)cc2)=N/C1=C\c1ccc2ncsc2c1 [Example 40, (Z)-5-(benzo[d]thiazol-6-ylmethylene)-2-((4-chlorophenyl)amino)-3,5-dihydro-4H-imidazol-4-one] | > 7.00 | 5.00 to 6.00
O=C1NC(Nc2ccccc2)=N/C1=C\c1ccc2cc[nH]c2c1 [Example 73, (Z)-5-((1H-indol-6-yl)methylene)-2-(phenylamino)-3,5-dihydro-4H-imidazol-4-one] | < 5.00 | < 5.00
Cn1cnc2ccc(/C=C3\N=C(Nc4ccccc4)NC3=O)cc21 [Example 46, (Z)-5-((1-methyl-1H-benzo[d]imidazol-6-yl)methylene)-2-(phenylamino)-3,5-dihydro-4H-imidazol-4-one] | > 7.00 | 6.00 to 7.00
O=C1NC(N(Cc2ccccc2)c2ccccc2)=N/C1=C\c1ccc2c(c1)OCO2 [Example 22, (Z)-5-(benzo[d][1,3]dioxol-5-ylmethylene)-2-(benzyl(phenyl)amino)-3,5-dihydro-4H-imidazol-4-one] | 5.00 to 6.00 | < 5.00
COc1ccc(NC2=N/C(=C\c3ccc4ncsc4c3)C(=O)N2)cc1 [Example 25, (Z)-5-(benzo[d]thiazol-6-ylmethylene)-2-((4-methoxyphenyl)amino)-3,5-dihydro-4H-imidazol-4-one] | > 7.00 | 6.00 to 7.00
O=C1NC(Nc2ccccc2)=N/C1=C\c1ccc2ncccc2c1 [Example 53, (Z)-2-(phenylamino)-5-(quinolin-6-ylmethylene)-3,5-dihydro-4H-imidazol-4-one] | > 7.00 | < 5.00
O=C1NC(Nc2ccc3ncsc3c2)=N/C1=C\c1ccc2nc[nH]c2c1 [Example 76, (Z)-5-((1H-benzo[d]imidazol-6-yl)methylene)-2-(benzo[d]thiazol-6-ylamino)-3,5-dihydro-4H-imidazol-4-one] | > 7.00 | 6.00 to 7.00
O=C1NC(Nc2ccccc2)=N/C1=C\c1ccc2[nH]ncc2c1 [Example 55, (Z)-5-((1H-indazol-5-yl)methylene)-2-(phenylamino)-3,5-dihydro-4H-imidazol-4-one] | > 7.00 | < 5.00
CN(CC1CC1)C1=N/C(=C\c2ccc3c(c2)OCO3)C(=O)N1 [Example 11, (Z)-5-(benzo[d][1,3]dioxol-5-ylmethylene)-2-((cyclopropylmethyl)(methyl)amino)-3,5-dihydro-4H-imidazol-4-one] | 6.00 to 7.00 | < 5.00
Cn1cnc2cc(/C=C3\N=C(Nc4ccccc4)NC3=O)ccc21 [Example 71, (Z)-5-((1-methyl-1H-benzo[d]imidazol-5-yl)methylene)-2-(phenylamino)-3,5-dihydro-4H-imidazol-4-one] | < 5.00 | < 5.00
O=C1NC(Nc2ccccc2)=N/C1=C\c1ccc2[nH]cnc2c1 [Example 26, (Z)-5-((1H-benzo[d]imidazol-5-yl)methylene)-2-(phenylamino)-3,5-dihydro-4H-imidazol-4-one] | > 7.00 | 6.00 to 7.00
O=C1NC(Nc2ccc3nc(Nc4ccccc4)sc3c2)=N/C1=C\c1ccc2ncsc2c1 [Example 104, (Z)-5-(benzo[d]thiazol-6-ylmethylene)-2-((2-(phenylamino)benzo[d]thiazol-6-yl)amino)-3,5-dihydro-4H-imidazol-4-one] | > 7.00 | < 5.00
CN(C1=N/C(=C\c2ccc3c(c2)OCO3)C(=O)N1)c1ccc2ncsc2c1 [Example 70, (Z)-5-(benzo[d][1,3]dioxol-5-ylmethylene)-2-(benzo[d]thiazol-6-yl(methyl)amino)-3,5-dihydro-4H-imidazol-4-one] | > 7.00 | < 5.00
CN1C(=O)/C(=C/c2ccc3c(c2)OCO3)N=C1N(C)c1ccccc1 [Example 3, (Z)-5-(benzo[d][1,3]dioxol-5-ylmethylene)-3-methyl-2-(methyl(phenyl)amino)-3,5-dihydro-4H-imidazol-4-one] | 5.00 to 6.00 | < 5.00
CN(Cc1ccccc1)C1=N/C(=C\c2ccc3c(c2)OCO3)C(=O)N1 [Example 23, (Z)-5-(benzo[d][1,3]dioxol-5-ylmethylene)-2-(benzyl(methyl)amino)-3,5-dihydro-4H-imidazol-4-one] | 6.00 to 7.00 | < 5.00
COc1ccc(N(C)C2=N/C(=C\c3ccc4c(c3)OCO4)C(=O)N2)cc1 [Example 12, (Z)-5-(benzo[d][1,3]dioxol-5-ylmethylene)-2-((4-methoxyphenyl)(methyl)amino)-3,5-dihydro-4H-imidazol-4-one] | 6.00 to 7.00 | < 5.00
